In patent US20180133327A1, “Cell Penetrating Peptides and Complexes Comprising the Same” (Amal Therapeutics SA, priority 2015, published 2018):

Assays:
[1] = system: CFSE-labeled naïve OVA257-264-specific CD8+ T cells from OT-1 TCR transgenic mice; assay: In vitro epitope presentation assay, MHC class I (BMDCs, proliferation of OT-1 T cells); format: cell-based, mouse; settings: for in vitro proliferation of CD8 T cells (MHC class I presentation): BMDCs loaded 4 h with 300 nM ZxxOVACD8CD4, LPS o.n., 4 days
Description: BMDCs were loaded 4 h with 300nM of the different Zebra CPP truncation conjugated to both ovalbumin CD8 and CD4 epitopes (Z13OVACD8CD4, Z15OVACD8CD4 and Z18OVACD8CD4), then washed and incubated o.n. with 100 ng/ml of LPS. Efficient MHC class I or class II-restricted presentation was monitored after 4 days with CFSE-labeled naïve OVA257-264-specific CD8^+T cells from OT-1 T cell receptor (TCR) transgenic mice OT1 cells (A) or CFSE-labeled naïve OVA323-339-specific CD^+T cells from OT-2 T cell TCR transgenic mice respectively. As positive control, BMDCs were pulsed for 1 h with 5 uM peptide. Data from one experiment representative of three independent experiments.
BMDCs were loaded with 0.3 μM of each Zebra CPP truncation (Z13 to Z20) conjugated to OVACD8 epitope as described above for 4 hours at 37° C., washed 3 times, then matured overnight at 37° C. with 100 ng/ml LPS (from Salmonella abortus, equi S-form, Enzo Life Sciences). Antigen-loaded mature BMDC were then mixed at a ratio of 1:10 with OT-1 T cell receptor (TCR) transgenic mice splenocytes that had been stained with 10 μM 5-(and 6) Carboxyfluorescein diacetate succinimidyl ester (CFSE) (Life Technologies). After 4 days co-incubation of spleen cells and BMDCs, antigen-specific proliferation was assessed by flow cytometry, measuring CFSE dilution on CD8 T cells and live-gated cells. OT-1 mice express TCR specific for MHC class I restricted OVA257-264.
In order to assess the capacity of the ZEBRA CPP truncations to stimulate an integrated immune response including CD4 T cells, antigenic cargoes were produced that included both CD8 and CD4 T cell epitopes from OVA, and conjugated to Z13, Z15 and Z18. Accordingly, the following constructs (Z13OVACD8CD4, Z15OVACD8CD4 and Z18OVACD8CD4) were synthesized:
Processing and presentation of the CD8 and CD4 T cell epitopes were monitored, as described in Example 2 for CD8 T cell epitopes, by measuring the in vitro proliferation of naïve OT-1 T cells (CD8 T cell epitopes; FIG. 4A) and OVA323-339-specific CD4^+ T cells from OT-2 T cell TCR transgenic mice, respectively (FIG. 4B). Briefly, OT-2 T cell TCR transgenic mice express TCR specific for MHC class II restricted OVA323-339.

[2] = system: BMDC, mo-DCs, EL-4 or K562 cells; assay: In vitro transduction with fluorescein-conjugated ZEBRA CPP truncation constructs (FACS); format: cell-based, human and mouse; settings: for kinetic of transduction (entry into cells): fluorescein-conjugated constructs (ZxxOVACD8FAM), 30 minutes, 2 h or 4 h, acidic wash, FACS
Description: Transduction was assessed in cells with high phagocytosis capacity (dendritic cells of human and mice origin) and in cells with poor phagocytosis capacity (T cells from human, K562, or mouse, EL4, origin). Cells were incubated for 30 minutes, 2 h or 4 h with the fluorescein-conjugated constructs (Z13OVACD8FAM, Z14OVACD8FAM, Z15OVACD8FAM or Z18OVACD8FAM) then subjected to a 30s wash with an acidic buffer to remove membrane bound peptide before FACS analysis.
In order to more directly assess the transduction capacities of the selected ZEBRA CPP truncations Z13, Z14, Z15 and Z18 fluorescein-conjugated constructs (Z13OVACD8FAM, Z14OVACD8FAM, Z15OVACD8FAM and Z18OVACD8FAM) were synthesized. To this end, 5-(and-6)-carboxyfluorescein (mixed isomers; e.g. ThermoFisher Scientific catalogue no. C194) was added to each of Z13OVACD8 (SEQ ID NO: 29), Z14OVACD8 (SEQ ID NO: 30), Z15OVACD8 (SEQ ID NO: 31) and Z18OVACD8 (SEQ ID NO: 34).
These fluorescein-conjugated constructs (Z13OVACD8FAM, Z14OVACD8FAM, Z15OVACD8FAM and Z18OVACD8FAM) were tested for their ability to transduce different human and mouse cell types, in particular (i) cells with high phagocytosis capacity, namely dendritic cells (DCs) of human […], and (ii) cells with poor phagocytosis capacity, namely T cells from human, K562, or mouse, EL4, origin). The EL-4 thymoma cell line was maintained in complete RPMI 1640 medium. The K562 cell line was maintained in complete Iscove's modified Dulbecco's medium. BMDC, mo-DCs, EL-4 or K562 cells were incubated for 4 h at 37° C. with the fluorescein-conjugated constructs as described above (Z13OVACD8FAM, Z14OVACD8FAM, Z15OVACD8FAM or Z18OVACD8FAM). For removal of membrane bound peptide prior to cell transduction, a 30s wash with an acidic buffer (0.2 M Glycine, 0.15 M NaCl, pH 3) was performed. Cells were then analyzed by flow cytometry (FACS).

[3] = system: self antigen (CD8 epitope from gp100)-specific CD8 T cells; assay: Self antigen-specific CD8 T cell response after vaccination (gp100CD8 restimulation, multimer staining); format: in vivo, mice; settings: 10 nmol ZxxOVACD4gp100CD8 s.c. wk0, wk2, wk9, combined with MPLA or Hiltonol
Description: The constructs were tested in combination with Hiltonol (A) and MPLA (B). Briefly, Mice were vaccinated three times (wk0, wk2 and wk9) by s.c. injection (right flank) of 10 nmol of Z13OVACD4gp1 00CD8, Z14OVACD4gp1 00CD8, Z18OVACD4gp100CD8 and i.m. injection of […] of Hiltonol (right hind leg) or s.c. injection of 20 μg of MPLA. One week after the last vaccination, spleen cells were restimulated in vitro for 7 days with gp100CD8 peptide and stained as described in Example 6.
To extend the previous findings to self antigen-specific immune response, Z13, Z14 and Z18 conjugated to antigenic cargo containing a self antigen (CD8 epitope from gp100) and CD4 T cell epitope from OVA were synthesized.
Firstly, those constructs were tested with Hiltonol or MPLA adjuvant. To this end, mice were vaccinated three times (wk0, wk2 and wk9) by s.c. injection (right flank) of 10 nmol of Z13OVACD4gp100CD8, Z14OVACD4gp100CD8, Z18OVACD4gp100CD8 and i.m. injection of 50 μg of Hiltonol (right hind leg) or s.c. injection of 20 μg of MPLA. One week after the last vaccination, spleen cells were restimulated in vitro for 7 days with gp100CD8 peptide and stained as follow. Briefly, for surface staining, after FcR blocking, the following mAb were used: CD4 (RMA4-4), CD8 (53-6.7), CD11b (M1/70), CD19 (6D5), all from BD Biosciences. Dead cells were identified with LIVE/DEAD yellow fluorescent reactive dye (L34959) from Life Technologies and were excluded from analyses. MHC-peptide multimers were from Immudex (Copenhagen, Denmark). Multimer gating strategy used a dump gate (CD4, CD11b, CD19) and excluded dead cells.

Sequence	in vitro proliferation of CD8 T cells (MHC class I presentation) [1]	kinetic of transduction (entry into cells) [2]	self antigen-specific CD8 T cell immune response [3]	efficiency of DC transduction and cargo delivery into the MHC class I antigen processing pathway ([1]; ZxxOVACD8CD4, 300 nM, compared with Z13 or Z15)	transduction efficacy, all cell types ([2]; fluorescein-conjugated constructs, compared to other ZEBRA CPP truncations)
KRYKNRVASRKSRAKFK (CPP Z15) [ZEBRA CPP truncation]	proliferation of both CD8 and CD4 T cells occurred	slower			
KRYKNRVASRKSRAKFKQLLQHYREVAAAK [Z14]		rapidly entering in the majority of the cells	high self antigen-specific CD8 immune response		
KRYKNRVASRKSRAKFKQLLQHYREVAAAKSSENDRLRLLLK [Z13]	proliferation of both CD8 and CD4 T cells occurred	rapidly entering in the majority of the cells	high self antigen-specific CD8 immune response		
REVAAAKSSENDRLRLLLK [Z18]	proliferation of both CD8 and CD4 T cells occurred	slower	did not elicit self antigen-specific CD8 T cell responses	less efficient	lower transduction efficacy
